Measurements from patent US20260234188A1, “CHEMOKINE-BINDING PEPTIDES” (Oxford University Innovation Limited, priority 2022, published 2026).
Entries after “also recorded” stand apart in the source; their conditions may differ.

These substances were tested on panel of up to 42 human chemokines (assay: Phage-display next generation sequencing screen of overlapping hexadecapeptide libraries, chemokines displayed on streptavidin beads). Settings: log2E greater than 5, chemokines named by first part of UniProt Entry Name.
Assay type: binding
Method in brief: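 Phage-display libraries of 55662 overlapping hexadecapeptides from tick and viral chemokine-binding proteins, human chemokines and chemokine receptors screened against up to 42 human chemokines, with hits found by next-generation sequencing. Peptides mapped to parent-protein position with log2 fold enrichment; regions of interest where cumulative residue log2 E exceeds the 95% upper CI of the protein median.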
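Also: chemokine listed when log2 fold enrichment exceeds 5.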

Row | Substance | Chemokines Bound
1 | CR23112 (TLFASDFVLMWCVFFM) | CCL17, CCL19,; also recorded: CCL20, CCL22,; also recorded: CCL8, X3CL1
2 | CR26155 (VVLIFLLSWLPYNLVL) | CCL15, CCL28,; also recorded: CXL10, CXL13
3 | CR5262 (FILALVGNTLALWLFI) | CCL22, CCL28,; also recorded: SDF1, IL8
4 | CR4756 (FASDFVLMWAVFFMTV) | CCL17, X3CL1,; also recorded: CXL10
5 | CR3302 (DLFIGIKIVYSFLWGI) | CCL1, CCL17,; also recorded: CCL18, CCL20,; also recorded: CCL22, CCL28,; also recorded: CXL10, CXL11,; also recorded: CXL13, IL8
6 | CR23587 (TRLGVWLMAIVGTFLN) | CCL18, CCL20,; also recorded: CCL22
7 | CR4712 (FAIVVAYFLSWGPYNF) | CCL18, CCL19,; also recorded: CCL20, CCL22,; also recorded: CCL25, SDF1
8 | CR5027 (FFSQLVYFIYHAVSSY) | CCL17, CCL18, and CCL20, CXL10, and CXL11, SDF1, and IL8
9 | CR25375 (VLVIGSLVARWLLGIQ) | CCL18, CCL19,; also recorded: CCL20
10 | CR26308 (VWLMCIVGTFLNVLVI) | CCL18, CCL20, and CCL22, CCL28, and CXL10, CXL11, and SDF1
11 | CR26399 (VYTVLLSWKVLLTLVW) | CCL1, CCL17, and CCL18, CCL19, and CCL20, CCL22, and CCL25, CCL28, and X3CL1, CXL10, and CXL11, SDF1, and CXL13, CXL14, and IL8
12 | CR23943 (TVITFALYVGQFLAYV) | CCL2, CCL20,; also recorded: CCL22, X3CL1,; also recorded: CXL10, CXL11,; also recorded: SDF1, CXL13
13 | CR25167 (VLGLLLNSLALWVFSS) | CCL11, CCL17,; also recorded: CCL18, CXL11,; also recorded: CXL14
14 | CR5077 (FGFFIPLMFMIFSYTF) | CCL18, X3CL1,; also recorded: CXL14
15 | CR5349 (FIYVLMFLCNAIGNSL) | CCL19, CCL20,; also recorded: CXL10
16 | CR5243 (FIGFFSGIFFIILLTI) | CCL17, CCL18,; also recorded: CCL19, CCL20,; also recorded: CCL22, CXL11,; also recorded: SDF1, CXL14

Row | Substance | Chemokines Bound
17 | CR5103 (FGLLGNILVVITFAFY) | CCL19, CCL20,; also recorded: CCL22, CCL28,; also recorded: CXL10, SDF1,; also recorded: CXL14
18 | CR26231 (VVTSVITWLVAVFASV) | CCL11, CCL17, and CCL18, CCL2, and CCL20, CCL25, and CCL8, CXL10, and CXL11, CXL14, and IL8
19 | CR27051 (YDLFIGIKIVYSFLWG) | CCL18, CCL2,; also recorded: CCL20, CCL25,; also recorded: CCL28, CXL10,; also recorded: CXL11, CXL14
20 | CR25407 (VLYFIADEVYTVLLSW) | CCL15, CCL17, and CCL18, CCL19, and CCL20, CCL25, and X3CL1, CXL10, and CXL11, CXL13, and IL8
21 | CR498 (AFLWGIFPTVIFSYFY) | CCL17, CCL18,; also recorded: CCL19, CCL20,; also recorded: CCL25, CXL13
22 | CR26521 (WGLALLFALPDFIFLS) | CCL15, CXL13, and IL8
23 | CR26306 (VWLMAIVGTFLNVLVI) | CCL22, CXL11,; also recorded: CXL13
24 | CR5021 (FFSGMLLLLSISIDRY) | CCL18, CCL19,; also recorded: CCL20, CCL28
25 | CR5245 (FIGIKIVYCFLWGIFP) | CCL1, CCL15,; also recorded: CCL17, CCL18,; also recorded: CCL19, CCL20,; also recorded: CCL22, CCL25,; also recorded: CCL28, X3CL1,; also recorded: CXL10, CXL11,; also recorded: SDF1, CXL13,; also recorded: CXL14, IL8
26 | CR28005 (YVSTLDFAIVFILMII) | CCL17, CCL18,; also recorded: CCL19, CCL20,; also recorded: CCL22, CCL28,; also recorded: X3CL1, CXL10,; also recorded: CXL11, SDF1,; also recorded: CXL13
27 | CR23947 (TVKLIFAIVVAYFLSW) | CCL17, CCL20,; also recorded: CCL22, CCL28,; also recorded: SDF1, CXL14
28 | CR26630 (WLMCIVGTFLNVLVIT) | CCL1, CCL17,; also recorded: CCL18, CCL19,; also recorded: CCL20, CCL22,; also recorded: CCL28, CCL8,; also recorded: X3CL1, CXL10,; also recorded: CXL11, SDF1,; also recorded: CXL14, IL8
29 | CR26799 (WVFIFSSIQLATVVFL) | CCL18, CCL19, and CCL20, CCL22, and CCL28, X3CL1, and CXL10, CXL11, and IL8
30 | CR2524 (CFLWGIFPTVIFSYFY) | CCL22, CCL25, and CXL13, CXL14, and IL8
31 | CR5055 (FFYYLYVYLDIFSVVA) | CCL18, CCL2, and CCL22, CXL10, and SDF1

Same assay, conditions: log2E greater than 5, chemokines named by first part of UniProt Entry Name, peptides binding complement C5a (control) excluded

Row | Substance | Chemokines Bound
32 | CR7814 (GVVTSVITWLVAVFAS) | CCL11, CCL2, and CCL22, CCL8, and IL8
33 | EEEDDYTAYAPLTCYF [HD7] | CCL1, CCL11, and CCL15, CCL17, and CCL18, CCL20, and CCL22, CCL3, and CCL4, CCL5, and CCL8
34 | CR8546 (IAAFSWFMLSLPLLFL) | CCL22, CCL28,; also recorded: CXL14
35 | CR8812 (IFFIILLTIDRYLAIV) | CCL18, CCL19,; also recorded: CCL22, CXL14
36 | VP3426 (GSMMLSLLIAGMSLML) | CCL2, CCL5, and X3CL1, CXL10, and IL8
37 | CR7344 (GMGPGPWMNILWAWFI) | CCL1, CCL11,; also recorded: CCL17, CCL18,; also recorded: CCL19, CCL2,; also recorded: CCL20, CCL22,; also recorded: CCL25, CCL8,; also recorded: X3CL1, CXL10,; also recorded: CXL11, SDF1,; also recorded: CXL14, IL8
38 | CR8813 (IFFIILLTIDRYLAVV) | CCL17, CCL18,; also recorded: CCL20, CCL25,; also recorded: CCL28, CXL10,; also recorded: CXL11, CXL13,; also recorded: CXL14, IL8
39 | VP6307 (MYSLVFVILMCIPFSF) | X3CL1, CXL11,; also recorded: CXL13, IL8
40 | VP11559 (YLYILFLSCIIINGRD) | CXL10, CXL11,; also recorded: CXL13, IL8
41 | VP6289 (MVAVALYAYGLAFRLM) | CCL1, CCL11,; also recorded: CCL15, CCL17,; also recorded: CCL19, CCL2,; also recorded: CCL20, CCL22,; also recorded: CCL25, CCL28,; also recorded: CCL5, CXL10,; also recorded: SDF1, IL8
42 | CR7666 (GSVSLVNLLTIIGCLW) | CCL17, CCL20,; also recorded: CCL25
43 | CR9087 (IIALVVWGLSVIISSS) | CCL1, CCL17,; also recorded: CCL18, CCL19,; also recorded: CCL2, CCL20,; also recorded: CCL22, CCL25,; also recorded: CCL28, X3CL1,; also recorded: CXL10, CXL11,; also recorded: SDF1, CXL13,; also recorded: CXL14, IL8
44 | CR7856 (GWVFIFSSIQLCTVVF) | CCL1, CCL19, and CCL20, CCL25, and CXL10, SDF1, and IL8
45 | CR7860 (GWVLGDFLCKLLNMIF) | CCL1, CCL17, and CCL18, CCL19, and CCL2, CCL20, and CCL22, CCL28, and CCL8, CXL10, and SDF1, CXL13, and IL8
46 | CR9515: chemokine binding peptide of Table 5A used in FIG. 5 combinations (ILYQFELFGFTLIFFK) | CCL18, CCL19,; also recorded: CXL10, CXL14
47 | CR8675 (IAYSLIAVFGLLGNIL) | CCL17, CCL22,; also recorded: CCL25, CCL28,; also recorded: CXL11
48 | VP988 (CIILLVYVYATFATKG) | CCL1, CCL8,; also recorded: X3CL1, CXL10,; also recorded: CXL11
49 | CR5768 (FMFVLSVLGNLTVVCV) | CCL19, CCL22,; also recorded: CCL25
50 | CR8966 (IFWWIFAVIIAIPHFM) | IL8

Same assay, conditions: log2E greater than 5, chemokines named by first part of UniProt entry name, C5a (control) binders excluded

Row | Substance | Chemokines Bound
51 | CR15077 (LYAHLAAAFLWVVVAV) | CCL18, CCL19,; also recorded: CCL20, CCL22,; also recorded: CCL25, CCL28,; also recorded: CXL10, CXL11,; also recorded: SDF1, IL8
52 | CR20660 (SIILMFLSDFSFIFSS) | CCL25, CXL13, and IL8
53 | CR15967 (MVWANLLVFVVSFLPL) | CCL1, CXL10, and SDF1
54 | CR13324 (LLMLGLELLFGFFIPL) | CCL1, CCL11,; also recorded: CCL17, CCL18,; also recorded: CCL2, CCL20,; also recorded: CCL22, CCL28,; also recorded: CXL10, CXL11,; also recorded: SDF1, CXL14
55 | CR2158 (AVKIVFSFIWGVLPTM) | CCL18, CCL20,; also recorded: SDF1, CXL14
56 | CR15502 (MIFTWNLVLSQFFSIL) | CCL11, CCL17,; also recorded: CCL18, CCL19,; also recorded: CCL20, CCL22,; also recorded: CCL25, CCL28,; also recorded: CCL8, X3CL1,; also recorded: CXL10, CXL11,; also recorded: SDF1, CXL13,; also recorded: CXL14, IL8
57 | CR14548 (LTGFLFYLNMYASIYF) | CCL18, CCL19, and CCL22, CCL28, and CXL10, CXL11, and SDF1, CXL13, and IL8
58 | CR14849 (LVLGLLLNSLALWVFC) | CCL17, CCL19, and CCL20, CCL28, and SDF1
59 | CR13966 (LPTMVFSFFYVIFCKA) | CCL20, CCL25,; also recorded: SDF1, CXL14
60 | CR15801 (MSFFSGMLLLLCISID) | CCL18, CCL20, and SDF1
61 | CR22786 (TFTGLIAAFSWFMLSL) | CCL11, CCL17,; also recorded: CCL18, CCL2,; also recorded: CCL20, CCL22,; also recorded: CCL28, X3CL1,; also recorded: SDF1, IL8
62 | CR12432 (LGIILFSYVEILRTLF) | CCL17, CCL18, and CXL10, CXL11, and IL8
63 | CR12163 (LFIGIKIVYAFLWGIF) | CCL18, CCL19,; also recorded: CCL2, CCL25,; also recorded: CCL28, X3CL1,; also recorded: CXL10, SDF1,; also recorded: CXL13, CXL14
64 | CR10825 (KLIFAIVVAYFLSWGP) | CCL17, CCL28,; also recorded: CXL14
65 | CR20433 VP8386 (SFYVAMFASLSFITEI) | CCL1, X3CL1, and CXL10, CXL11, and IL8
66 | CR12439 (LGIMLFAYSMIIRTLQ) | CCL17, CCL18,; also recorded: CCL20, CCL25
67 | CR10008 (ITLFASDFVLMWAVFF) | CCL1, CCL22,; also recorded: CXL10, CXL11
68 | CR18714 (QYLKAFLAAVLGWHLA) | CCL18, CCL28,; also recorded: CXL13, CXL14
69 | CR22272 (SWKVLLTLVWGAAPVI) | CCL17, CCL18,; also recorded: CCL20, CCL22,; also recorded: CCL25, CCL28,; also recorded: X3CL1, CXL10,; also recorded: CXL11, SDF1,; also recorded: CXL14, IL8
70 | CR13967 (LPTMVFSFFYVIFSKA) | CCL1, CCL17,; also recorded: CCL18, CCL19,; also recorded: CCL20, CCL28,; also recorded: CXL10
71 | CR19824 (RVTLTALAVWGLALLF) | CCL2, CCL22,; also recorded: CCL25, CXL10,; also recorded: CXL11, SDF1,; also recorded: CXL14, IL8
72 | CR2129 (AVFYALLFVFSLLGNS) | CCL15, CCL18, and CCL19, CCL20, and CCL25, CCL28, and SDF1
73 | CR2028 (ATSWVVIFWILAALMG) | CCL17, CCL18,; also recorded: CCL19, CCL20,; also recorded: CCL28, SDF1,; also recorded: CXL13, CXL14
74 | CR10279 (IYLLNLAISNLLFLVT) | CCL28, SDF1,; also recorded: CXL13, IL8
